# Test results: US11958865B1, “Leucine-rich repeat kinase 2 (LRRK2) inhibitors” (H. Lundbeck A/S, priority 2022, dated 2024)
# Where two headings read alike, the source gives them in different places.
# Key:
# LRRK2 WT = LRRK2 WT (Homo sapiens (Human), UniProt Q5S007); experiment: LRRK2 wild-type LanthaScreen TR-FRET kinase activity assay; format: biochemical; conditions: 1 nM kinase, 1.3 mM ATP, n≥2 tests
# [1] = Fraction unbound in rat plasma and brain homogenate by equilibrium dialysis; format: in vitro ADME, male Sprague-Dawley rat; conditions: 1 μM, equilibrium dialysis 5 h at 37° C.; for fubrain (% free): rat brain homogenate; for fuplasma (% free): rat plasma
# In short: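 Male Sprague-Dawley rat plasma or brain homogenate (diluted 1:4 in buffer) dialysed against 100 mM sodium phosphate pH 7.4 across a 12-14 kDa membrane, 1 μM compound (≤0.5% DMSO), 5 h at 37° C with shaking. LC/MS-MS of both chambers; fu from buffer/donor ratio, corrected for dilution factor D=4 (brain) or 1 (plasma).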
# [2] = Rat brain disposition after oral gavage; format: in vivo, male Sprague-Dawley rats; conditions: male, Sprague-Dawley, 1 h, mean ± stdev; for Kp at 1 h / Kp uu at 1 h: n=3
# In short: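 Male Sprague-Dawley rats (n=3) dosed orally at 10 or 5 mg/kg in 0.5% HPMC suspension; plasma and brain taken at 0.5 or 1 h. LC-MS/MS quantitation; Kp is total brain:plasma ratio, and Kp,uu was derived using rat fu in plasma and brain.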
# [3] = tested on: panel of 403 wild type kinases; experiment: Broad kinase selectivity, KINOMEscan scanMAX panel; format: binding, primarily of human origin; conditions: 10 nM
# Experimental: Protein kinase profiling of the inhibitors (Fabian, M. A. et al. A small molecule-kinase interaction map for clinical kinase inhibitors. Nat. Biotechnol. 23, 329-336 (2005)) were undertaken at a concentration of 0.010 μM and carried out in Eurofins DiscoverX KINOMEscan scanMAX panel of 403 wild type kinases (primarily of human origin) covering AGC (PKA, PKG, PKC family kinases), CAMK (Calcium/calmodulin-dependent protein kinases), CK1 (Casein kinase 1 kinases), CMGC (CDK, MAPK, GSK3, CLK families), STE (homologs of yeast Sterile 7, Sterile 11, Sterile 20 kinases), TK (Tyrosine kinases), TKL (Tyrosine kinase-like kinases), lipid and atypical kinase families.
# Selectivity Score or S-score is a quantitative measure of compound selectivity. It was calculated by dividing the number of kinases that a compound binds to by the total number of distinct kinases tested, excluding mutant variants. S=Number of hits/Number of assays. This value can be calculated using % Ctrl as a potency threshold (below) and provides a quantitative method of describing compound selectivity to facilitate comparison of different compounds.
# [4] = brain, oral 5 mg/kg, n=3, read-out: Total brain concentration
# [5] = plasma, oral 5 mg/kg, n=3, read-out: Total plasma concentration
# Chain of LRRK2 WT (Q5S007 970-2527): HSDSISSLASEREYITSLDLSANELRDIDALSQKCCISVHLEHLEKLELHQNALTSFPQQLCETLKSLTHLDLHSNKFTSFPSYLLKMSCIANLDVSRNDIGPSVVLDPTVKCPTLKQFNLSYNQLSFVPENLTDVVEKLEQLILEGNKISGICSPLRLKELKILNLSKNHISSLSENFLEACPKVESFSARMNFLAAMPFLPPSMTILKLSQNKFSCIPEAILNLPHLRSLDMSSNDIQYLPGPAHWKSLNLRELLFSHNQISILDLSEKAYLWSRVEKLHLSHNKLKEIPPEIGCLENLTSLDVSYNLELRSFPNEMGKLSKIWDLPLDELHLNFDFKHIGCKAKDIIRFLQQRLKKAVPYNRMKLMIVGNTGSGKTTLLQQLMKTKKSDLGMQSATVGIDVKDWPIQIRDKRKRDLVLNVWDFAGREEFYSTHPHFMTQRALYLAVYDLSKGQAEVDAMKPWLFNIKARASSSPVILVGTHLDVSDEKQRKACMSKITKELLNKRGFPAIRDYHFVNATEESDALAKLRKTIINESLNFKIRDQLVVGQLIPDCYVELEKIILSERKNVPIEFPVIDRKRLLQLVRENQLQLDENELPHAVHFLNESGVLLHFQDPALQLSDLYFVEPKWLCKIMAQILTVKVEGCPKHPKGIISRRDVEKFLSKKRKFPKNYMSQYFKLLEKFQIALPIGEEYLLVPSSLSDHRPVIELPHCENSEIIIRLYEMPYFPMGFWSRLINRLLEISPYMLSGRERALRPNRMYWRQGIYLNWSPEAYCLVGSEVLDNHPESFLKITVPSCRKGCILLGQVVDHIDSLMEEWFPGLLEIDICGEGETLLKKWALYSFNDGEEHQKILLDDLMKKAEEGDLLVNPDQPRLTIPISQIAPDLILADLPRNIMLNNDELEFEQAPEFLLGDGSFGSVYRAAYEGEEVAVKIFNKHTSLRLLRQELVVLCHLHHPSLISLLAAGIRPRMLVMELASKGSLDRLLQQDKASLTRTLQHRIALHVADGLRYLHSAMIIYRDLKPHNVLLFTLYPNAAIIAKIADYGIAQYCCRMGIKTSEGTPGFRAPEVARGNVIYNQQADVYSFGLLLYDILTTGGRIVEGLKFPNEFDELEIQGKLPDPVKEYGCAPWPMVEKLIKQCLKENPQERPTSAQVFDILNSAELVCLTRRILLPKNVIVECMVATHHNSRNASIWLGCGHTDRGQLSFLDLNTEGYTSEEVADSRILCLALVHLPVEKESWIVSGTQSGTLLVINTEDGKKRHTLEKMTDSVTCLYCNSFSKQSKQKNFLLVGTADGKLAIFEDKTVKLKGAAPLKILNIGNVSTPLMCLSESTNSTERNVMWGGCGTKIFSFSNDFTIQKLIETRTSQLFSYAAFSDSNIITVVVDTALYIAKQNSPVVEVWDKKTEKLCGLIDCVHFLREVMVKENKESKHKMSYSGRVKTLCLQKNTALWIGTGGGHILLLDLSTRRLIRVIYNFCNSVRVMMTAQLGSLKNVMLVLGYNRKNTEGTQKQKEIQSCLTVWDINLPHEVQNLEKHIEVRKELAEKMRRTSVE
Structure (SMILES),IC50 (LRRK2 WT) [nM],fubrain (% free) [1] [% free],fuplasma (% free) [1] [% free],"Kp at 1 h ([2]; brain, oral 10 mg/kg)","Kp uu at 1 h ([2]; brain, oral 10 mg/kg)","concentration at 1 h ([2]; brain, oral 10 mg/kg, n=3, read-out: Total brain concentration) [ng/g]","concentration at 1 h ([2]; plasma, oral 10 mg/kg, n=3, read-out: Total plasma concentration) [ng/mL]",Selectivity Score S(1) ([3]; hits with % Ctrl <1 / 403 non-mutant kinases),Selectivity Score S(10) ([3]; hits with % Ctrl <10 / 403 non-mutant kinases),Selectivity Score S(35) ([3]; hits with % Ctrl <35 / 403 non-mutant kinases),"Number of Hits, S(1) ([3]; kinases with % Ctrl <1, 403 non-mutant kinases, includes LRRK2 WT)","Number of Hits, S(10) ([3]; kinases with % Ctrl <10, 403 non-mutant kinases)","Number of Hits, S(35) ([3]; kinases with % Ctrl <35, 403 non-mutant kinases)","Kp at 1 h ([2]; brain, oral 5 mg/kg)","Kp uu at 1 h ([2]; brain, oral 5 mg/kg)","concentration at 1 h [2, 4] [ng/g]","concentration at 1 h [2, 5] [ng/mL]"
"COc1ncccc1-n1nc2c(c1C)Nc1ncc3c(Cl)nn(c3n1)CCCO2 [Example 1, 8-Chloro-2-(2-methoxypyridin-3-yl)-3-methyl-2,4,12,13-tetrahydro-11H-5,7-(azenometheno)dipyrazolo[3,4-b:5′,1′-g][1]oxa[4,6,8]triazacycloundecine]",1.1,4.7,14.7,2.6 ± 0.2,0.83 ± 0.07,620 ± 280,245 ± 121,0.005,0.01,0.03,2,4,12,,,,
"COc1nccc(C)c1-n1nc2c(c1C)Nc1ncc3c(Cl)nn(c3n1)CCCO2 [Example 7, 8-Chloro-2-(2-methoxy-4-methylpyridin-3-yl)-3-methyl-2,4,12,13-tetrahydro-11H-5,7-(azenometheno)dipyrazolo[3,4-b:5′,1′-g][1]oxa[4,6,8]triazacycloundecine]",6.9,7.5,21.0,,,,,,,,,,,1.9 ± 0.3,0.68 ± 0.12,10 ± 2,6 ± 2
"COc1ncc(C)cc1-n1nc2c(c1C)Nc1ncc3c(Cl)nn(c3n1)CCCO2 [Example 12, 8-Chloro-2-(2-methoxy-5-methylpyridin-3-yl)-3-methyl-2,4,12,13-tetrahydro-11H-5,7-(azenometheno)dipyrazolo[3,4-b:5′,1′-g][1]oxa[4,6,8]triazacycloundecine]",0.4,3.0,6.7,,,,,,,,,,,1.9 ± 0.3,0.85 ± 0.15,146 ± 56,76 ± 23
"COc1nc(C)ccc1-n1nc2c(c1C)Nc1ncc3c(Cl)nn(c3n1)CCCO2 [Example 13, 8-Chloro-2-(2-methoxy-6-methylpyridin-3-yl)-3-methyl-2,4,12,13-tetrahydro-11H-5,7-(azenometheno)dipyrazolo[3,4-b:5′,1′-g][1]oxa[4,6,8]triazacycloundecine]",0.57,1.9,7.4,,,,,,,,,,,2.5 ± 0.1,0.74 ± 0.01,496 ± 128,199 ± 52
"Cc1c2c(nn1-c1cccnc1C(C)(F)F)OCCCn1nc(Cl)c3cnc(nc31)N2 [Example 14, 8-Chloro-2-(2-(1,1-difluoroethyl)pyridin-3-yl)-3-methyl-2,4,12,13-tetrahydro-11H-5,7-(azenometheno)dipyrazolo[3,4-b:5′,1′-g][1]oxa[4,6,8]triazacycloundecine]",14,5.8,14.6,,,,,,,,,,,1.2 ± 0.1,0.49 ± 0.04,347 ± 53,283 ± 57
"Cc1nc(C)c(-n2nc3c(c2C)Nc2ncc4c(Cl)nn(c4n2)CCCO3)cc1F [Example 15, 8-Chloro-2-(5-fluoro-2,6-dimethylpyridin-3-yl)-3-methyl-2,4,12,13-tetrahydro-11H-5,7-(azenometheno)dipyrazolo[3,4-b:5′,1′-g][1]oxa[4,6,8]triazacycloundecine]",4,5.0,11.0,,,,,,,,,,,1.8 ± 0.2,0.81 ± 0.07,254 ± 32,143 ± 8
"COc1nc(C)ncc1-n1nc2c(c1C)Nc1ncc3c(Cl)nn(c3n1)CCCO2 [Example 22, 8-Chloro-2-(4-methoxy-2-methylpyrimidin-5-yl)-3-methyl-2,4,12,13-tetrahydro-11H-5,7-(azenometheno)dipyrazolo[3,4-b:5′,1′-g][1]oxa[4,6,8]triazacycloundecine]",2.1,6.8,16.8,,,,,,,,,,,2.5 ± 0.4,1.02 ± 0.17,216 ± 42,86 ± 8
